Results as given in the supplement of paper PMC11208160.

Assay: recombinant UMI read abundance after kanamycin selection (control-corrected) (log10(CPM+1)); higher = more efficient recombination; extreme values may be limits of the assay; sequences stand for … in AGTGCAGAGAAAATCGGCCAGTTTTCTCTGCCTGCAGTCCGCATGCCGTGGGACCCCTTGGGTTCTAACCTGTTGCCTAGATTTATGCAGCGGACTGCCTTTCTCCCAAAGTGATAAACCGG…AGGTTGGTTTCACT; site = the 11-nt donor
Procedure, shortened: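 Sequenced counts of recombinant UMIs were turned into CPM, averaged across replicates and scaled with control-derived factors. The reported figure is log10(CPM+1). Those UMIs, each 12 nt long, tagged donor and donor-binding-loop pairs on a plasmid with a promoterless kanamycin gene, screened as a pool in Escherichia coli with IPTG (0.07 mM) plus kanamycin or without selection.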
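Also: IS621 bridge recombinase in Escherichia coli cells against a fixed T5 target plasmid.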

| Sequence | recombinant UMI read abundance (log10) |
| --- | --- |
| TGCAGCACATGGACCGGTTTTCCCGGTAATCCGTATTTGCG (site TGCAGCACTCG) | 0.686 |
| TGCAGTGCATGGACCGGTTTTCCCGGTAATCCGTATTTGTA (site TGCAGTGCTTA) | 0.853 |
| TGCATCCCATGGACCGGTTTTCCCGGTAATCCGTATTTGAA (site TGCATCCCTTT) | 0.335 |
| TGCATTCCATGGACCGGTTTTCCCGGTAATCCGTATTTGTT (site TGCATTCCTAA) | 0 |
| TGCCAGGCATGGACCGGTTTTCCCGGTAATCCGTATTTGTC (site TGCCAGGCTGA) | 0 |
| TGCCATTCATGGACCGGTTTTCCCGGTAATCCGTATTTGAT (site TGCCATTCTAT) | 0 |
| TGCCCGGCATGGACCGGTTTTCCCGGTAATCCGTATTTGGC (site TGACCGGCTGC) | 0.0166 |
| TGCCCGGCATGGACCGGTTTTCCCGGTAATCCGTATTTGGC (site TGCCCGGCTGC) | 0 |
| TGCCCGGCATGGACCGGTTTTCCCGGTAATCCGTATTTGGC (site TGGCCGGCTGC) | 0 |
| TGCCCGGCATGGACCGGTTTTCCCGGTAATCCGTATTTGGC (site TGTCCGGCTGC) | 0 |
| TGCCGATCATGGACCGGTTTTCCCGGTAATCCGTATTTGCG (site TGCCGATCTCG) | 0.225 |
| TGCCGTACATGGACCGGTTTTCCCGGTAATCCGTATTTGCT (site AGCCGTACTAG) | 0.792 |
| TGCCGTACATGGACCGGTTTTCCCGGTAATCCGTATTTGCT (site CGCCGTACTAG) | 0.514 |
| TGCCGTACATGGACCGGTTTTCCCGGTAATCCGTATTTGCT (site GGCCGTACTAG) | 0 |
| TGCCGTACATGGACCGGTTTTCCCGGTAATCCGTATTTGCT (site TGCCGTACTAG) | 1.25 |
| TGCGACACATGGACCGGTTTTCCCGGTAATCCGTATTTGGT (site TGCGACACTAC) | 0.00309 |
| TGCGAGGCATGGACCGGTTTTCCCGGTAATCCGTATTTGGA (site TGCGAGGCTTC) | 0.00911 |
| TGCGTTACATGGACCGGTTTTCCCGGTAATCCGTATTTGTT (site TGCGTTACTAA) | 0.237 |
| TGCTAGGCATGGACCGGTTTTCCCGGTAATCCGTATTTGAT (site TGCTAGGCTAA) | 0.0172 |

| Sequence | recombinant UMI read abundance (log10) |
| --- | --- |
| TGCTAGGCATGGACCGGTTTTCCCGGTAATCCGTATTTGAT (site TGCTAGGCTAC) | 0.0154 |
| TGCTAGGCATGGACCGGTTTTCCCGGTAATCCGTATTTGAT (site TGCTAGGCTAG) | 0 |
| TGCTAGGCATGGACCGGTTTTCCCGGTAATCCGTATTTGAT (site TGCTAGGCTAT) | 0.326 |
| TGCTATGCATGGACCGGTTTTCCCGGTAATCCGTATTTGGT (site TGCTAAGCTAC) | 0.0239 |
| TGCTATGCATGGACCGGTTTTCCCGGTAATCCGTATTTGGT (site TGCTACGCTAC) | 0.0173 |
| TGCTATGCATGGACCGGTTTTCCCGGTAATCCGTATTTGGT (site TGCTAGGCTAC) | 0.00428 |
| TGCTATGCATGGACCGGTTTTCCCGGTAATCCGTATTTGGT (site TGCTATGCTAC) | 0.262 |
| TGCTATTCATGGACCGGTTTTCCCGGTAATCCGTATTTGTA (site TGCTATTCTTA) | 1.33 |
| TGCTCACCATGGACCGGTTTTCCCGGTAATCCGTATTTGTA (site TGCTCACCTTA) | 0.0115 |
| TGCTGGGCATGGACCGGTTTTCCCGGTAATCCGTATTTGCC (site TGCTGGGCTGG) | 0.00658 |
| TGCTTATCATGGACCGGTTTTCCCGGTAATCCGTATTTGTG (site TGCTTATCTCA) | 1 |
| TGCTTGCCATGGACCGGTTTTCCCGGTAATCCGTATTTGAA (site TGCTTGCCTTT) | 0.0149 |
| TGGAAGACATGGACCGGTTTTCCCGGTAATCCGTATTTGCA (site AGGAAGACTTG) | 1.64 |
| TGGAAGACATGGACCGGTTTTCCCGGTAATCCGTATTTGCA (site CGGAAGACTTG) | 1.44 |
| TGGAAGACATGGACCGGTTTTCCCGGTAATCCGTATTTGCA (site GGGAAGACTTG) | 0 |
| TGGAAGACATGGACCGGTTTTCCCGGTAATCCGTATTTGCA (site TGGAAGACTTG) | 2.67 |
| TGGAAGTCATGGACCGGTTTTCCCGGTAATCCGTATTTGCA (site AGGAAGACTTG) | 0.00562 |
| TGGAAGTCATGGACCGGTTTTCCCGGTAATCCGTATTTGCA (site TGGAAGTCTTG) | 3.25 |
| TGGAATCCATGGACCGGTTTTCCCGGTAATCCGTATTTGTT (site AGGAATCCTAA) | 0 |

| Sequence | recombinant UMI read abundance (log10) |
| --- | --- |
| TGGAATCCATGGACCGGTTTTCCCGGTAATCCGTATTTGTT (site CGGAATCCTAA) | 0 |
| TGGAATCCATGGACCGGTTTTCCCGGTAATCCGTATTTGTT (site GGGAATCCTAA) | 0 |
| TGGAATCCATGGACCGGTTTTCCCGGTAATCCGTATTTGTT (site TGGAATCCTAA) | 0 |
| TGGACGGCATGGACCGGTTTTCCCGGTAATCCGTATTTGGC (site TGGACGGCTGC) | 1.89 |
| TGGACGGCATGGACCGGTTTTCCCGGTAATCCGTATTTGGC (site TGGCCGGCTGC) | 0.327 |
| TGGACGGCATGGACCGGTTTTCCCGGTAATCCGTATTTGGC (site TGGGCGGCTGC) | 0 |
| TGGACGGCATGGACCGGTTTTCCCGGTAATCCGTATTTGGC (site TGGTCGGCTGC) | 0.392 |
| TGGACGTCATGGACCGGTTTTCCCGGTAATCCGTATTTGTT (site TGGACGTCTAA) | 0.483 |
| TGGACTACATGGACCGGTTTTCCCGGTAATCCGTATTTGAC (site AGGACTACTGT) | 0 |
| TGGACTACATGGACCGGTTTTCCCGGTAATCCGTATTTGAC (site CGGACTACTGT) | 0 |
| TGGACTACATGGACCGGTTTTCCCGGTAATCCGTATTTGAC (site GGGACTACTGT) | 0 |
| TGGACTACATGGACCGGTTTTCCCGGTAATCCGTATTTGAC (site TGGACTACTGT) | 1.55 |
| TGGACTCCATGGACCGGTTTTCCCGGTAATCCGTATTTGTT (site CGGAATCCTAA) | 0 |
| TGGACTCCATGGACCGGTTTTCCCGGTAATCCGTATTTGTT (site TGGACTCCTAA) | 0.214 |
| TGGAGCTCATGGACCGGTTTTCCCGGTAATCCGTATTTGCG (site TGGAGCTCTCG) | 2.13 |
| TGGATACCATGGACCGGTTTTCCCGGTAATCCGTATTTGCG (site TGGATACCTCG) | 0 |
| TGGCCTTCATGGACCGGTTTTCCCGGTAATCCGTATTTGGT (site TAGCCTTCTAC) | 0 |
| TGGCCTTCATGGACCGGTTTTCCCGGTAATCCGTATTTGGT (site TCGCCTTCTAC) | 1.02 |
| TGGCCTTCATGGACCGGTTTTCCCGGTAATCCGTATTTGGT (site TGGCCTTCTAC) | 0.00327 |
